Assay results published in the NIST ThermoML archive (doi:10.1016/j.fluid.2008.03.020).
Numbers after ± are expanded uncertainties.

Legend:
[1] = refractive index (Na D-line) (dimensionless); conditions: Liquid, Standard Abbe refractometry
[2] = Liquid

| Structure (SMILES) | refractive index ([1]; 293.15 K) | mass density ([2]; 293.15 K) | refractive index ([1]; 298.15 K) | mass density ([2]; 298.15 K) | other results |
| --- | --- | --- | --- | --- | --- |
| ClCCCl [1,2-dichloroethane] | 1.4196 ± 0.0007 | 1252.9 ± 3.4 kg/m3 | – | – | vapor or sublimation pressure ([2]; 355.15 K): 95.5 ± 2 kPa |
| ClC(Cl)C(Cl)Cl [1,1,2,2-tetrachloroethane] | 1.494 ± 0.0007 | 1593 ± 4.5 kg/m3 | – | – | vapor or sublimation pressure ([2]; 417.25 K): 95.5 ± 2 kPa |
| Clc1ccccc1 [chlorobenzene] | – | – | 1.5218 ± 0.0007 | 1101 ± 3 kg/m3 | vapor or sublimation pressure ([2]; 402.85 K): 95.5 ± 2 kPa |
| C=CC#N [acrylonitrile] | – | – | 1.3887 ± 0.0007 | 800.3 ± 2 kg/m3 | vapor or sublimation pressure ([2]; 348.75 K): 95.5 ± 2 kPa |
| O=[N+]([O-])c1ccccc1 [nitrobenzene] | – | – | 1.55 ± 0.0007 | 1198.3 ± 3.3 kg/m3 | vapor or sublimation pressure ([2]; 481.45 K): 95.5 ± 2 kPa |
